Legend:
[1] = Molar enthalpy of transition or fusion; settings: Crystal
[2] = Crystal
[3] = molar heat capacity at constant pressure; settings: 101.33 kPa

CN(C)c1ccncc1 [4-(dimethylamino)pyridine]
Settings | Molar enthalpy of transition or fusion, Adiabatic calorimetry [kcal/mol] | Molar enthalpy of transition or fusion, DSC [kcal/mol] | Normal melting temperature, Adiabatic calorimetry [°C] | Normal melting temperature, DTA [°C]
[1] | 5.17 | 5.17 | – | –
[2] | – | – | 113.94 | 114.0

[3], Crystal
Settings | molar heat capacity at constant pressure [J/K/mol]
80.03 K | 64.47
83.52 K | 66.81
86.44 K | 69.05
89.41 K | 71.03
92.44 K | 72.95
95.51 K | 74.9
98.51 K | 76.86
101.43 K | 78.68
104.42 K | 80.51
107.48 K | 82.3
110.47 K | 83.92
113.41 K | 85.67
116.41 K | 87.31
119.47 K | 89.01
122.49 K | 90.57
125.46 K | 92.11
128.49 K | 93.69
131.59 K | 95.38
134.65 K | 96.78
137.66 K | 98.3
140.65 K | 99.76
143.69 K | 101.22
146.8 K | 102.9
149.88 K | 104.47
152.93 K | 105.97
155.94 K | 107.42
158.93 K | 108.62
161.98 K | 109.91
165.1 K | 111.54
168.19 K | 113.06
171.25 K | 114.49
174.28 K | 115.97
177.29 K | 117.2
180.27 K | 118.57
183.32 K | 120.19
186.44 K | 121.88
189.53 K | 123.23
192.6 K | 124.43
195.65 K | 125.95
198.67 K | 127.3
201.68 K | 128.65
204.66 K | 130
207.72 K | 131.46
210.84 K | 133.09
213.94 K | 134.61
217.02 K | 135.82
220.08 K | 139.06
223.12 K | 141.26
226.12 K | 143.32
229.09 K | 145.3
232.06 K | 146.84
235.11 K | 149.01
238.15 K | 150.96
241.18 K | 152.05
244.19 K | 153.79
247.18 K | 155.15
250.16 K | 156.56
253.13 K | 157.38
256.16 K | 158.57
259.24 K | 159.8
262.29 K | 161.74
265.4 K | 163.21
268.51 K | 165.52
271.55 K | 167.5
274.51 K | 168.7
277.42 K | 169.84
280.39 K | 171.69
283.34 K | 173.55
286.27 K | 175.43
289.25 K | 177.99
292.28 K | 179.13
295.28 K | 180.15
298.29 K | 181.32
301.34 K | 183.53
304.44 K | 184.83
307.47 K | 185.41
310.42 K | 187.12
313.4 K | 188.44
316.42 K | 189.79
319.4 K | 191.08
322.4 K | 192.54
325.41 K | 193.75
328.42 K | 194.7
331.5 K | 195.13
334.53 K | 196.95
337.56 K | 198.33
340.67 K | 200.84
342.97 K | 199.88
343.66 K | 201.99
343.86 K | 200.32
345.56 K | 201.09
346.45 K | 202.23
346.7 K | 203.24
348.77 K | 203.52
349.62 K | 204.76
349.67 K | 205.23
351.86 K | 205.79
352.63 K | 206.7
352.69 K | 207.19
354.94 K | 207.38
355.72 K | 208.46
355.82 K | 209.44
358.07 K | 209.19
358.46 K | 210.78
359.14 K | 211.21
361.26 K | 211.54
361.64 K | 213.95
362.4 K | 212.78
364.46 K | 214.96
364.97 K | 216.45
365.52 K | 215.57
367.64 K | 216.47
368.27 K | 219.21
368.63 K | 217.48
370.81 K | 219.17
371.06 K | 221.32
371.59 K | 220.81
373.98 K | 222.94
374.28 K | 223.05
374.54 K | 223.68
377.12 K | 225.02
377.36 K | 225
377.66 K | 225.68
380.18 K | 228.35
380.23 K | 226.87
380.77 K | 227.73
383.33 K | 231.81

[3], Liquid, Small (less than 1 g) adiabatic calorimetry
Settings | molar heat capacity at constant pressure [J/K/mol]
388.4 K | 231.37
389.73 K | 233.89
389.99 K | 232.72
390.88 K | 233.99
392.95 K | 234.74
393.17 K | 234.28
393.33 K | 235.41
395.77 K | 236.28
396.07 K | 235.35
396.35 K | 235.97
398.22 K | 237.66
399.18 K | 236.11
399.52 K | 236.69
402.29 K | 237.05
402.68 K | 237.16
